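GI50 = concentration required for 50% inhibition of growth. TGI is the concentration that stops growth completely.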
Tests used:
Experiment in all cases: inhibition of tumour cell growth, NCI panel, 384-well format; in the data active = GI50 below about 0.43 µM; inactive = the rest
[1] = system: RPMI-8226 leukemia
[2] = system: TK-10 renal
[3] = system: EKVX NSCLC
[4] = system: K-562 leukemia
[5] = system: OVCAR-4 ovarian
[6] = system: HCC-2998 colon
[7] = system: COLO 205 colon
[8] = system: SK-MEL-2 melanoma
[9] = system: OVCAR-5 ovarian
[10] = system: LOX IMVI melanoma
[11] = system: MCF7 breast
[12] = system: UACC-257 melanoma
[13] = system: U251 glioblastoma
[14] = system: MOLT-4 leukemia
[15] = system: PC-3 prostate
[16] = system: OVCAR-8 ovarian
[17] = system: IGROV1 ovarian
[18] = system: SW-620 colon
[19] = system: MDA-MB-468 breast
[20] = system: NCI-H322M lung
[21] = system: NCI-H460 NSCLC
[22] = system: HOP-62 NSCLC
[23] = system: HCT-116 colon
[24] = system: SF-295 CNS
[25] = system: SNB-19 CNS
[26] = system: SF-539 CNS
[27] = system: HOP-92 NSCLC
[28] = system: BT-549 breast
[29] = system: NCI-H226 lung
[30] = system: CCRF-CEM leukemia
[31] = system: NCI-H522 lung
[32] = system: HL-60(TB) leukemia
[33] = system: OVCAR-3 ovarian
[34] = system: CAKI-1 renal
[35] = system: T-47D breast
[36] = system: UACC-62 melanoma
[37] = system: NCI/ADR-RES ovarian
[38] = system: A498 renal
[39] = system: HT29 colon
[40] = system: DU-145 prostate
[41] = system: MDA-MB-231 breast
[42] = system: NCI-H23 lung
[43] = system: KM12 colon
[44] = system: RXF 393 renal
[45] = system: SN12C renal
[46] = system: SNB-75 CNS
[47] = system: 786-0 renal
[48] = system: MDA-MB-435 melanoma
[49] = system: SF-268 CNS
[50] = system: ACHN renal
[51] = system: MALME-3M melanoma
[52] = system: HCT-15 colon
[53] = system: SK-MEL-28 melanoma
[54] = system: SR leukemia
[55] = system: SK-MEL-5 melanoma
[56] = system: UO-31 renal
[57] = system: A549 NSCLC
[58] = system: SK-OV-3 ovarian
[59] = system: M14 melanoma
[60] = system: HS 578T breast

Cc1cc(C)c(S(=O)(=O)N(CCc2cccc(Br)c2)Cc2ccc(-c3cccc(S(C)(=O)=O)c3)cc2)c(C)c1
inactive: GI50 [1] > 100 µM | GI50 [2] > 100 µM | GI50 [3] > 100 µM | GI50 [4] > 100 µM | GI50 [5] > 100 µM | GI50 [6] > 100 µM | GI50 [7] > 100 µM | GI50 [8] > 100 µM | GI50 [9] > 100 µM | GI50 [10] > 100 µM | GI50 [11] > 100 µM | GI50 [12] > 100 µM | GI50 [13] > 100 µM | GI50 [14] > 100 µM | GI50 [15] > 100 µM | GI50 [16] > 100 µM | GI50 [17] > 100 µM | GI50 [18] > 100 µM | GI50 [19] > 100 µM | GI50 [20] > 100 µM | GI50 [21] > 100 µM | GI50 [22] > 100 µM | GI50 [23] > 100 µM | GI50 [25] > 100 µM | GI50 [26] > 100 µM | GI50 [27] > 100 µM | GI50 [28] > 100 µM | GI50 [29] > 100 µM | GI50 [30] > 100 µM | GI50 [31] > 100 µM | GI50 [33] > 100 µM | GI50 [34] > 81.9 µM | GI50 [35] > 100 µM | GI50 [36] > 100 µM | GI50 [37] > 100 µM | GI50 [38] > 100 µM | GI50 [39] > 100 µM | GI50 [40] > 100 µM | GI50 [41] > 100 µM | GI50 [42] > 100 µM | GI50 [43] > 100 µM | GI50 [44] > 100 µM | GI50 [45] > 100 µM | GI50 [46] > 100 µM | GI50 [47] > 100 µM | GI50 [48] > 100 µM | GI50 [49] > 100 µM | GI50 [50] > 100 µM | GI50 [51] > 100 µM | GI50 [52] > 100 µM | GI50 [53] > 100 µM | GI50 [55] > 100 µM | GI50 [56] > 100 µM | GI50 [57] > 100 µM | GI50 [58] > 100 µM | GI50 [59] > 100 µM
> 100 µM: TGI [1] | TGI [2] | TGI [3] | TGI [4] | TGI [5] | TGI [6] | TGI [7] | TGI [8] | TGI [9] | TGI [10] | TGI [11] | TGI [12] | TGI [13] | TGI [14] | TGI [15] | TGI [16] | TGI [17] | TGI [18] | TGI [19] | TGI [20] | TGI [21] | TGI [22] | TGI [23] | TGI [25] | TGI [26] | TGI [27] | TGI [28] | TGI [29] | TGI [30] | TGI [31] | TGI [32] | TGI [33] | TGI [34] | TGI [35] | TGI [36] | TGI [37] | TGI [38] | TGI [39] | TGI [40] | TGI [41] | TGI [42] | TGI [43] | TGI [44] | TGI [45] | TGI [46] | TGI [47] | TGI [48] | TGI [49] | TGI [50] | TGI [51] | TGI [52] | TGI [53] | TGI [54] | TGI [55] | TGI [56] | TGI [57] | TGI [58] | TGI [59]
active: GI50 [24] 0.0672 µM

Cn1cnc2c(F)c(Nc3ccc(Br)cc3F)c(C(=O)NOCCO)cc21
9.01 µM: TGI [27]
> 31.9 µM: TGI [29]
inactive: GI50 [1] > 56 µM | GI50 [2] 38.3 µM | GI50 [3] 29.4 µM | GI50 [5] 17.9 µM | GI50 [9] 0.922 µM | GI50 [10] 1.25 µM | GI50 [11] > 100 µM | GI50 [13] 12.4 µM | GI50 [14] > 100 µM | GI50 [15] > 100 µM | GI50 [16] > 67.4 µM | GI50 [17] 1.55 µM | GI50 [19] > 100 µM | GI50 [20] 1.96 µM | GI50 [21] > 100 µM | GI50 [23] 0.498 µM | GI50 [24] > 100 µM | GI50 [25] > 100 µM | GI50 [26] 21.9 µM | GI50 [27] 1.38 µM | GI50 [28] 15.7 µM | GI50 [30] > 100 µM | GI50 [31] > 45.4 µM | GI50 [33] > 100 µM | GI50 [35] > 100 µM | GI50 [37] 93.9 µM | GI50 [38] 16.9 µM | GI50 [40] 31.8 µM | GI50 [45] 12.5 µM | GI50 [47] > 32.1 µM | GI50 [49] > 100 µM | GI50 [50] > 33.9 µM | GI50 [52] > 44.7 µM | GI50 [54] 24.7 µM | GI50 [56] 4.96 µM | GI50 [57] 0.553 µM | GI50 [58] > 100 µM
> 75.8 µM: TGI [46]
> 100 µM: TGI [1] | TGI [2] | TGI [3] | TGI [5] | TGI [9] | TGI [11] | TGI [13] | TGI [14] | TGI [15] | TGI [16] | TGI [17] | TGI [18] | TGI [19] | TGI [21] | TGI [22] | TGI [24] | TGI [25] | TGI [28] | TGI [30] | TGI [31] | TGI [32] | TGI [33] | TGI [34] | TGI [35] | TGI [37] | TGI [38] | TGI [39] | TGI [40] | TGI [43] | TGI [45] | TGI [47] | TGI [48] | TGI [49] | TGI [50] | TGI [52] | TGI [54] | TGI [57] | TGI [58]
1.2 µM: TGI [36]
8.26 µM: TGI [41]
0.733 µM: TGI [6]
0.322 µM: TGI [7]
17.8 µM: TGI [42]
0.0159 µM: TGI [51]
> 57.7 µM: TGI [20]
active: GI50 [6] < 0.01 µM | GI50 [7] < 0.0149 µM | GI50 [12] 0.0333 µM | GI50 [18] 0.0211 µM | GI50 [29] 0.405 µM | GI50 [32] 0.0399 µM | GI50 [36] 0.0203 µM | GI50 [39] 0.0524 µM | GI50 [41] 0.422 µM | GI50 [42] 0.325 µM | GI50 [43] 0.419 µM | GI50 [48] 0.1 µM | GI50 [51] < 0.01 µM | GI50 [53] < 0.0143 µM | GI50 [55] 0.0317 µM | GI50 [59] < 0.0121 µM
> 45.9 µM: TGI [56]
0.241 µM: TGI [12]
15.2 µM: TGI [23]
> 88.2 µM: TGI [60]
> 21 µM: TGI [44]
18.7 µM: TGI [10]
0.162 µM: TGI [53]
> 90.9 µM: TGI [26]
0.161 µM: TGI [59]
